Assay results taken from patent US8029764B2, “Methods for detection of colorectal cancer” (The Johns Hopkins University, priority 2001, dated 2011).

Tested on: colorectal tissue transcripts
Test: SAGE of normal, adenoma and cancer colorectal tissue (transcript tag counts)
Set-up: species or system human
Description: In an effort to identify potential molecular markers of early colorectal tumors, we have here analyzed gene expression in benign and malignant colorectal tumors in an unbiased and comprehensive fashion. We used SAGE to analyze global gene expression in normal, benign and malignant colorectal tissue. SAGE is a gene expression profiling method that associates individual mRNA transcripts with 15-base tags derived from specific positions near their 3′ termini (3). The abundance of each tag provides a quantitative measure of the transcript level present within the mRNA population studied. SAGE is not dependent on pre-existing databases of expressed genes, and therefore provides an unbiased view of gene expression profiles. For the current study, SAGE libraries derived from two samples of normal colonic epithelium, two colorectal adenomas, and two colorectal cancers were analyzed.
SAGE. For the initial SAGE^3 of benign tumors, fresh adenomas were obtained from surgical specimens derived from FAP patients. Adenomas from FAP patients were employed because of the ready availability of small lesions and the certainty of inactivation of the APC pathway which initiates the formation of the majority of sporadic tumors. After histopathological verification of the neoplastic nature of the lesion (>70% neoplastic cells), total RNA was isolated by solubilizing the tissue in RNAgents Lysis Buffer (Promega, Madison, Wis.) followed by ultracentrifugation over a cesium chloride gradient. mRNA selection was performed from the purified total RNA using oligo(dT) cellulose (Life Technologies, Gaithersburg, Md.). […] Tags were extracted from the raw sequence data and, after excluding repeated ditags, linker sequences, and tags from the polyrnorphic Major Histocompatibility loci, the resulting tag libraries were compared and statistical analysis performed using SAGE software, version 4.0. Data from the libraries are publicly available at the Uniform Resource Locator (URL) address for the http file type found on the www host server that has a domain name of ncbi.nlm.nih.gov, and a path to the directory SAGE, and detailed SAGE protocols are available at the Uniform Resource Locator (URL) address for the http file type found on the www host server that has a domain name of sagenet.org, and file name of sage_protocol.htn.

[1] = normal colorectal tissue library 1
[2] = normal colorectal tissue library 2

| Sequence | AD1 (SAGE tag count) (SAGE library AD1) | AD2 (SAGE tag count) (SAGE library AD2) | CA1 (SAGE tag count) (SAGE library CA1) | CA2 (SAGE tag count) (SAGE library CA2) | NC1 (SAGE tag count) (SAGE library NC1) | NC2 (SAGE tag count) (SAGE library NC2) | AD1 (SAGE tag count) (adenoma library 1) | AD2 (SAGE tag count) (adenoma library 2) | CA1 (SAGE tag count) (cancer library 1) | CA2 (SAGE tag count) (cancer library 2) | NC1 (SAGE tag count) [1] | NC2 (SAGE tag count) [2] |
| --- | --- | --- | --- | --- | --- | --- | --- | --- | --- | --- | --- | --- |
| ACTCTTGTTG (chemistry not fully specified) | 0 | 0 | 0 | 0 | 7 | 2 | – | – | – | – | – | – |
| GGTGAAGAGG (chemistry not fully specified) | 5 | 3 | 10 | 9 | 16 | 32 | – | – | – | – | – | – |
| ACACCCATCA (chemistry not fully specified) | 1 | 0 | 5 | 3 | 2 | 27 | – | – | – | – | – | – |
| GGCCCTGCAG (chemistry not fully specified) | 1 | 0 | 5 | 1 | 14 | 7 | – | – | – | – | – | – |
| CCCTCCCGAA (chemistry not fully specified) | 9 | 14 | 18 | 7 | 89 | 54 | – | – | – | – | – | – |
| GCCACGTGGA (chemistry not fully specified) | 5 | 2 | 7 | 1 | 19 | 16 | – | – | – | – | – | – |
| CCTCCAGTAC (chemistry not fully specified) | 2 | 3 | 2 | 4 | 20 | 8 | – | – | – | – | – | – |
| CTTACAAGCA (chemistry not fully specified) | 2 | 3 | 4 | 3 | 21 | 13 | – | – | – | – | – | – |
| GCGAAACCCT (chemistry not fully specified) | 123 | 43 | 64 | 98 | 167 | 565 | – | – | – | – | – | – |
| GATGACCCCC (chemistry not fully specified) | 4 | 3 | 3 | 3 | 42 | 49 | – | – | – | – | – | – |
| TGGCTACTTA (chemistry not fully specified) | – | – | – | – | – | – | 1 | 0 | 1 | 2 | 6 | 9 |
| TTTGGTTTCA (chemistry not fully specified) | – | – | – | – | – | – | 0 | 0 | 0 | 0 | 2 | 13 |
| GCTGGCACAT (chemistry not fully specified) | 1 | 0 | 6 | 0 | 15 | 14 | – | – | – | – | – | – |
| CCGCTGCACT (chemistry not fully specified) | 55 | 46 | 37 | 30 | 127 | 102 | – | – | – | – | – | – |
| TCAGCTGCAA (chemistry not fully specified) | – | – | – | – | – | – | 0 | 0 | 9 | 3 | 56 | 16 |
| CACCCCTGAT (chemistry not fully specified) | 58 | 58 | 13 | 36 | 73 | 169 | – | – | – | – | – | – |
| GTGGGGGCGC (chemistry not fully specified) | 2 | 0 | 1 | 0 | 5 | 22 | – | – | – | – | – | – |

| Sequence | AD1 (SAGE tag count) (SAGE library AD1) | AD2 (SAGE tag count) (SAGE library AD2) | CA1 (SAGE tag count) (SAGE library CA1) | CA2 (SAGE tag count) (SAGE library CA2) | NC1 (SAGE tag count) (SAGE library NC1) | NC2 (SAGE tag count) (SAGE library NC2) | AD1 (SAGE tag count) (adenoma library 1) | AD2 (SAGE tag count) (adenoma library 2) | CA1 (SAGE tag count) (cancer library 1) | CA2 (SAGE tag count) (cancer library 2) | NC1 (SAGE tag count) [1] | NC2 (SAGE tag count) [2] |
| --- | --- | --- | --- | --- | --- | --- | --- | --- | --- | --- | --- | --- |
| TTCCACTAAC (chemistry not fully specified) | – | – | – | – | – | – | 7 | 4 | 5 | 5 | 29 | 9 |
| GCAAGAAAGT (chemistry not fully specified) | 0 | 4 | 0 | 1 | 48 | 0 | – | – | – | – | – | – |
| TTTAACGGCC (chemistry not fully specified) | – | – | – | – | – | – | 36 | 35 | 11 | 30 | 93 | 67 |
| TACTGTGGAT (chemistry not fully specified) | – | – | – | – | – | – | 0 | 2 | 2 | 1 | 4 | 11 |
| GTGTTGGGGG (chemistry not fully specified) | – | – | – | – | – | – | 8 | 6 | 1 | 3 | 21 | 19 |
| AGGATGGTCC (chemistry not fully specified; the letters are possibly those of the target site) | 5 | 3 | 6 | 8 | 34 | 19 | – | – | – | – | – | – |
| ACAGGGTGAC (chemistry not fully specified) | 1 | 8 | 7 | 6 | 25 | 13 | – | – | – | – | – | – |
| GCTTGGGGAT (chemistry not fully specified) | 2 | 0 | 0 | 0 | 11 | 8 | – | – | – | – | – | – |
| TAGACTAGCA (chemistry not fully specified) | – | – | – | – | – | – | 6 | 6 | 22 | 4 | 31 | 27 |
| TACTCGGCCA (chemistry not fully specified) | – | – | – | – | – | – | 0 | 0 | 1 | 0 | 10 | 5 |
| ATGGTCTACG (chemistry not fully specified) | 0 | 0 | 1 | 0 | 10 | 5 | – | – | – | – | – | – |
| TTGGGGTTTC (chemistry not fully specified) | – | – | – | – | – | – | 50 | 81 | 67 | 50 | 111 | 184 |
| CGGACTCACT (chemistry not fully specified) | 5 | 14 | 14 | 10 | 20 | 45 | – | – | – | – | – | – |
| TTCTGTAGCC (chemistry not fully specified) | – | – | – | – | – | – | 4 | 2 | 4 | 2 | 13 | 23 |
| TAATCCCAGC (chemistry not fully specified) | – | – | – | – | – | – | 8 | 7 | 16 | 13 | 37 | 33 |
| GCACAGGTCA (chemistry not fully specified) | 1 | 0 | 1 | 1 | 5 | 9 | – | – | – | – | – | – |
| ATGACGCTCA (chemistry not fully specified) | 6 | 5 | 3 | 4 | 22 | 18 | – | – | – | – | – | – |
